Consider seven compounds from paper PMC4669722, “Antitumour potential of BPT: a dual inhibitor of cdk4 and tubulin polymerization” (Cell Death & Disease, 2015).

By IC50 is commonly meant the concentration at which inhibition is half-maximal.

Starred links: 1 amine or outer side, 2 acyl side, 3 side chain; linkers in the order of their positions; H or OH if unused. Positions of bridges follow the written chain, without caps; N, C: chain ends. Non-standard residues stand in square brackets, D forms with d. Residues, ends and D or L forms follow the SMILES beside them. Chains are numbered I, II in the order given. Actinocin(9to1) = Cc1c2oc3c(C)ccc(C(=O)[*:1])c3nc-2c(C(=O)[*:2])c(N)c1=O; NMeV = CN[C@H](C(=O)O)C(C)C; Sar = CNCC(=O)O

Test [1] relates to BNL CL2 (mouse normal hepatic cells). The test is described as follows: Cell proliferation (MTT) assay, BNL CL2. The test is classed as cell-based. The note with it: Mus musculus, BNL CL.2; 48 h, MTT; read-out: IC50 cell growth inhibition, BNL CL2. How it is done: (§1) All 10 human cancer cell lines were maintained at 37 °C in 5% CO2 in RPMI-1640 medium, supplemented with 10% foetal calf serum and 100 μg/ml normocin. The 10 cancer cell lines used for screening were all obtained from ATCC (Manassas, VA, USA); they were the NSCLC (a form of cancer that is resistant to chemotherapy) lines: NCI-H460 (pRb^+, p53^+), A549 (pRb^+, p53^+), Calu-1 (pRb^+, p53-null), NCI-H1299 (pRb^+, p53-null), NCI-H358 (pRb-null, p53-null); the colon cancer line LS174T (pRb^+, p53^+); the prostate cancer line PC-3 (pRb^+, p53-null); the pancreatic cancer line MiaPaca (pRb^+, p53-mutant). The genotypes within brackets indicate the status of the tumour suppressor proteins pRb and p53. The mouse embryonic normal hepatic cell line (BNL CL2) and its SV40 large T-antigen-transformed counterpart cell line (BNL SV A.8) were also purchased from ATCC. The large T-antigen inactivates the tumour suppressor proteins p53 and pRb. The detailed procedure of cell proliferation (MTT) assay and IC50 determination was described previously.[32]

Test [2] relates to Calu-1 (NSCLC; p53 null, pRb+). The test is described as follows: Cell proliferation (MTT) assay, Calu-1. It counts as cell-based, human. The following applies: Homo sapiens, Calu-1; 48 h, MTT; read-out: IC50 cell growth inhibition, Calu-1. How it is done:
as §1

A further test has as its system pBluescript plasmid DNA. The test is described as follows: EtBr displacement assay. It counts as binding. The following applies: 1.3 μM EtBr, pH 7.4. As for the experimental part:
The assays were performed in a 96-well plate with clear bottom (Costar, Washington, DC, USA). The assay involved the addition of 10 μl of 10 × concentrated stock solution of compounds (dissolved in DMSO and further diluted in EtBr displacement assay buffer) to 90 μl of reaction mixture containing 6 μg of purified pBlueScript DNA and 1.3 μM EtBr in EtBr displacement assay buffer with final pH 7.4. Equivalent amounts of DMSO were added to the vehicle controls. In addition to control samples (DNA+EtBr), test samples (DNA+EtBr+test compounds), blank 1 (EtBr only), blank 2 (DNA only), wells containing DNA and compound were also prepared to test any change in the background fluorescence readings. The reduction in relative fluorescence counts was monitored ([…]) and recorded after 1 min equilibration time. Fascaplysin and actinomycin D, which are known to intercalate d-s DNA, were used as standard compounds in assay. The mean control and test readings were corrected by subtracting blank readings. The percentage fluorescence in the test samples in reaction with control samples was calculated by using following formula: […]

In test [3] the test system is MiaPaCa (pancreatic; p53His273mut, pRb+). Briefly: Cell proliferation (MTT) assay, MiaPaCa. The note with it: Homo sapiens, MIA PaCa-2, 48 h, read-out: IC50 cell growth inhibition, MiaPaCa. The test is classed as cell-based. How it is done: as §1
For test [4], the system named is PC-3 (prostate; p53 null, pRb+). The test is described as follows: Cell proliferation (MTT) assay, PC-3. It counts as cell-based. The note with it: Homo sapiens, 48 h, read-out: IC50 cell growth inhibition, PC-3. How it is done: as §1
In a further test the target is Cdk1-cyclin B1 (Homo sapiens, UniProt P06493). The test is described as follows: In vitro kinase assay, Cdk1-cyclin B1 (in-house). The test is classed as biochemical. The note with it: three independent experiments; read-out: IC50 (mean±S.D.), Cdk1-cyclin B1. How it is done:
(§2) The in vitro kinase assays for testing against Cdk4-cyclin D1, Cdk2-cyclin A, Cdk1-cyclin B1 and Cdk9-cyclin T1 were performed in-house. The methodology and results have been reported previously.[20], [30], [31], [32], [45] The kinase profiling for 58 representative kinases was carrried out commercially at Millipore Bioscience Division, Livingston, UK.

In another test the target is Cdk2-cyclin A (Homo sapiens, UniProt P24941). The test is described as follows: In vitro kinase assay, Cdk2-cyclin A (in-house). The note with it: three independent experiments; read-out: IC50 (mean±S.D.), Cdk2-cyclin A. The test is classed as biochemical. As for the experimental part:
as §2

Another test deals with Cdk9-cyclin T1 (Homo sapiens, UniProt P50750). The test is described as follows: In vitro kinase assay, Cdk9-cyclin T1 (in-house). It counts as biochemical. The following applies: three independent experiments; read-out: IC50 (mean±S.D.), Cdk9-cyclin T1. How it is done: as §2
For test [5], the system named is NCI-H358 (NSCLC; p53 null, pRb null). The test is described as follows: Cell proliferation (MTT) assay, NCI-H358. It counts as cell-based. The following applies: Homo sapiens, 48 h, read-out: IC50 cell growth inhibition, NCI-H358. How it is done:
as §1

The subject of test [6] is BNL SV A.8 (mouse hepatic; SV40-mediated transformed cells). Briefly: Cell proliferation (MTT) assay, BNL SV A.8. The following applies: Mus musculus; 48 h, MTT; read-out: IC50 cell growth inhibition, BNL SV A.8. The test is classed as cell-based. How it is done: as §1
Another test has as its system A549 (NSCLC; p53+, pRb+). Briefly: Cell proliferation (MTT) assay, A549. It counts as cell-based. The note with it: Homo sapiens, 48 h, read-out: IC50 cell growth inhibition, A549. As for the experimental part:
as §1

Test [7] relates to LS174T (colorectal carcinoma; p53+, pRb+). The test is described as follows: Cell proliferation (MTT) assay, LS174T. The test is classed as cell-based. The note with it: Homo sapiens, 48 h, read-out: IC50 cell growth inhibition, LS174T. As for the experimental part:
as §1

The test system of test [8] is NCI-H460 (NSCLC; p53+, pRb+). Briefly: Cell proliferation (MTT) assay, NCI-H460. It counts as cell-based. The note with it: Homo sapiens, 48 h, read-out: IC50 cell growth inhibition, NCI-H460. As for the experimental part:
as §1

A further test addresses Cdk4-cyclin D1 (Homo sapiens, UniProt P11802). Briefly: In vitro kinase assay, Cdk4-cyclin D1 (in-house). The note with it: three independent experiments; read-out: IC50 (mean±S.D.), Cdk4-cyclin D1. The test is classed as biochemical. How it is done: as §2
For test [9], the system named is NCI-H1299 (NSCLC; p53 null, pRb+). The test is described as follows: Cell proliferation (MTT) assay, NCI-H1299. The following applies: Homo sapiens, 48 h, read-out: IC50 cell growth inhibition, NCI-H1299. The test is classed as cell-based. As for the experimental part: as §1
A further test relates to Calu-1 cells. More on the design: method as in PMID 16493461. The note with it: cited from earlier work.
For another test, the system named is NCI-H358 cells. The test is described as follows: Flow cytometric cell cycle analysis, synchronized NCI-H358. It counts as cell-based, human. The note with it: NCI-H358, hydroxyurea 250 μM, 18 h. How it is done:
The untreated (control) and treated (with test compounds) cells were harvested by trypsinization, washed once with PBS and then fixed in 70% chilled (−20 °C) ethanol for minimum 1 h. After the fixation step, cells were centrifuged for 5 min at 3000 × g at room temperature, and the pellet was suspended in PBS containing 50 μg/ml propidium iodide (Sigma-Aldrich, Dorset, UK; cat. no. P-4170) and 0.5 mg/ml DNase-free ribonuclease (Sigma-Aldrich; cat. no. R-5503). The cells were stained for 1 h in the dark at 4 °C. Cell cycle analysis was performed on the Beckman Coulter (Epics Altra) fluorescence-activated cell sorter (Beckman Coulter UK Ltd, Buckinghamshire, UK). To gate all the events that represent single cells, and not cell doublets or cell clumps, the following analyses were performed on the samples. Cytograms of propidium iodide fluorescence peak signal versus integrated fluorescence or the linear signal were plotted. All data points on the straight line were isolated in a single gate and the gated data was further used for plotting a histogram that represents a complete cell cycle. The total number of events was not allowed to exceed 200 events per s. Data acquisition was stopped after a minimum of 10 000 events had been collected.
For orientation: Flow cytometry measures light scatter and fluorescence of single cells or particles in a stream.

A further test relates to tubulin. Briefly: Cell-free tubulin polymerization assay in vitro. It counts as biochemical. The note with it: 10 μM; control 19 mOD/min. As for the experimental part: The purified tubulin was obtained commercially (Cytoskeleton Inc., Denver, CO, USA) and the polymerization assays were carried out according to the method described previously.[36] […] The resulting polymerization curves are representative of the three phases of microtubule polymerization, namely nucleation, growth and steady-state equilibrium. Paclitaxel and nocodazole were used in the assay as a known enhancer and inhibitor of tubulin polymerization, respectively. The ability of BPT to inhibit tubulin polymerization in vitro was determined according to the manufacturer's instructions. Briefly, tubulin protein (3 mg/ml) was polymerized in GTP buffer (80 mM PIPES, pH 6.9, 2 mM MgCl2, 0.5 mM EGTA, 10.2% glycerol and 1 mM GTP) in the presence of a range of BPT concentrations at 37 °C in a temperature-regulated Biotech spectrophotometer (Potton, Bedfordshire, UK). The absorbance (at 340 nm) kinetics of 61 cycles for each sample was studied and the readings were recorded at an interval of 1 min.

Cdk1-cyclin B1, sequence (P06493 whole entry): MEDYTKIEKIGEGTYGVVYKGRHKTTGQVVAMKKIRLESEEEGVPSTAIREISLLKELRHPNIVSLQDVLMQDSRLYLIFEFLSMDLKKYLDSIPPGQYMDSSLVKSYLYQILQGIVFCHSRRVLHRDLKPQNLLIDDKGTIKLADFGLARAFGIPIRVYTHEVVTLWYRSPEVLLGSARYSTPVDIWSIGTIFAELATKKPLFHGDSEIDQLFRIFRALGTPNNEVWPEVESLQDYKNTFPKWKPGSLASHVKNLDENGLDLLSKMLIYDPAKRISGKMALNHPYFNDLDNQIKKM
Cdk1-cyclin B1, sequence (P14635 whole entry partner): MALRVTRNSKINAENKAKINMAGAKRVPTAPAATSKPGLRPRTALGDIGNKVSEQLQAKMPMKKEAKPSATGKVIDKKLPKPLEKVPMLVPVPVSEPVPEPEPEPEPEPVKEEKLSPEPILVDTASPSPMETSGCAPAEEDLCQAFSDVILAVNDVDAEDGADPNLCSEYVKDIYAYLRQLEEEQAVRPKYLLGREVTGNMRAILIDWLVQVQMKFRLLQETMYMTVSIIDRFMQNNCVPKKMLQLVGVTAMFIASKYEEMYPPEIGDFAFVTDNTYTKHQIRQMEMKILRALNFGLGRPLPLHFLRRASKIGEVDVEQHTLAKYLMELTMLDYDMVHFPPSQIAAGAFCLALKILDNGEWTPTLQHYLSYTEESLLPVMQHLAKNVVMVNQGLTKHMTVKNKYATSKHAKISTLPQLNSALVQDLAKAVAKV
Cdk4-cyclin D1, sequence (P11802 whole entry): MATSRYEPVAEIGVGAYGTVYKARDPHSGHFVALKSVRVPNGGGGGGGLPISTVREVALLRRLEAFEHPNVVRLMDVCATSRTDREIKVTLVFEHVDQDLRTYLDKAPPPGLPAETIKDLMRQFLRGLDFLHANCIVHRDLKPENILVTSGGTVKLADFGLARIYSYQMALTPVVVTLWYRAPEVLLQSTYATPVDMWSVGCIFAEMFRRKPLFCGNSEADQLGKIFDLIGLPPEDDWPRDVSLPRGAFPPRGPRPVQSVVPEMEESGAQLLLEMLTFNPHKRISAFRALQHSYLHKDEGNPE
Cdk4-cyclin D1, sequence (P24385 whole entry partner): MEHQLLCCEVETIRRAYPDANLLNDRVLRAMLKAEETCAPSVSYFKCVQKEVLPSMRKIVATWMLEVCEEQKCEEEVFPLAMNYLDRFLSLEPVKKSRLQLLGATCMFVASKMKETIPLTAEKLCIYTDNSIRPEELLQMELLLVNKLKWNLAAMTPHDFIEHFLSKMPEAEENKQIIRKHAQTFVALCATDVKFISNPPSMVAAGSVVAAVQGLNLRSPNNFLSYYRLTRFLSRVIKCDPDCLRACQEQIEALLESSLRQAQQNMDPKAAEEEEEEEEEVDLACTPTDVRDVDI
Cdk9-cyclin T1, sequence (P50750 whole entry): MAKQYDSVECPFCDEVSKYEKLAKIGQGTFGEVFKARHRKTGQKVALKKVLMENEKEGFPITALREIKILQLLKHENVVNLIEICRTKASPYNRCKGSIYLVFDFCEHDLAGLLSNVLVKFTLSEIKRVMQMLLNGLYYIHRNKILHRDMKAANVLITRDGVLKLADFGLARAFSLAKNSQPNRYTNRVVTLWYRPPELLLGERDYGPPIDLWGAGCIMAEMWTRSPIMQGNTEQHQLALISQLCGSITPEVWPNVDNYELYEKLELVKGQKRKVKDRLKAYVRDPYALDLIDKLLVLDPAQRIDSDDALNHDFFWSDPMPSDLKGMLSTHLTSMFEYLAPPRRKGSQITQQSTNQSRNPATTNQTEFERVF
Cdk9-cyclin T1, sequence (O60563 whole entry partner): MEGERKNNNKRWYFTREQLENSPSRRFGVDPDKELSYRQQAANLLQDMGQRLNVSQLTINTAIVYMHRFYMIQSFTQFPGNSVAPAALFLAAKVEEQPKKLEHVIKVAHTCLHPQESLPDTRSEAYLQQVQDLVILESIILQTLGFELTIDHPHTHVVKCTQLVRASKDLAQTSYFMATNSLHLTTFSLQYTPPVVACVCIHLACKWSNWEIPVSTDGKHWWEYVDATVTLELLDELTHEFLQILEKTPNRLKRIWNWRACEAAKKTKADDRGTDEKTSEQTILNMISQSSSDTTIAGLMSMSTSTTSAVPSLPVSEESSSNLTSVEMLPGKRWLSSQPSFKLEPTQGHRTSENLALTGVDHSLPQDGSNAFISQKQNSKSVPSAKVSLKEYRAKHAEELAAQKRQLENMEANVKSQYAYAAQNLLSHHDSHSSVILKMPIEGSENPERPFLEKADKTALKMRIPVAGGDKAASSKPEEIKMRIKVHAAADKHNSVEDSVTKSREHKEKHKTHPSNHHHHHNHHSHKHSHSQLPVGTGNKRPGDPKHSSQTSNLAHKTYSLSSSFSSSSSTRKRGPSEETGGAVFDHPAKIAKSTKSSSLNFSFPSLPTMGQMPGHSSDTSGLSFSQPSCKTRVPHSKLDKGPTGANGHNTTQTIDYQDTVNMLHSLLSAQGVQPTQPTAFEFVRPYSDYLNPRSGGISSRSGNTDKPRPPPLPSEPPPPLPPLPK

Consider `COc1ccccc1C(=O)N1CCc2c([nH]c3ccccc23)C1` [CA198], for which the IC50 in test [1] is 37 µM; in test [2], 92 µM; in test [3], 43 µM; in test [4], 42 µM; on Cdk1-cyclin B1, more than 500 µM; at Cdk2-cyclin A, 861 ± 29 µM. Further, the IC50 at Cdk9-cyclin T1 is more than 1 mM; in [5], 28 µM; in test [6], 40 µM; in the test on A549 (NSCLC; p53+, pRb+), 46 µM; in test [7] it was 33 µM; in [8], 29 µM. Moreover, the values for the IC50 (on Cdk4-cyclin D1; in test [9]) were 25 ± 5.5 µM and 35 µM, respectively. For the same compound, the “EtBr displacement from DNA” value in the test with pBluescript plasmid DNA is reported as “No EtBr displacement up to 100 μM”.
`COc1cccc(C(=O)N2CCc3c([nH]c4ccccc34)C2)c1` [CA199]: the IC50 in test [1] was 6.5 µM; in test [2] it was 47 µM; in test [3], 8.5 µM; in test [4] it was 13.1 µM; on Cdk1-cyclin B1 it was more than 500 µM; on Cdk2-cyclin A it was 766 ± 33 µM. Further, the IC50 at Cdk9-cyclin T1 is more than 1 mM; in test [5] it was 3.5 µM; in [6], 8.2 µM; with A549 (NSCLC; p53+, pRb+), 8 µM; in [7], 7.1 µM; in test [8] it was 6.2 µM. In addition, the IC50 on Cdk4-cyclin D1 is 24.4 ± 4 µM; in test [9], 4.5 µM. Besides, in the test with pBluescript plasmid DNA, the “EtBr displacement from DNA” value is recorded as “No EtBr displacement up to 100 μM”. The “phase of cell cycle block in Calu-1 cells” value in the test with Calu-1 cells is reported as “blocks only at the G0/G1 phase”.
`CC(C)(C)c1ccc(C(=O)N2CCc3c([nH]c4ccccc34)C2)cc1` [CA211]: the IC50 is 27 µM in [1]; 54 µM in test [2]; 29 µM in [3]; 32 µM in test [4]; more than 500 µM at Cdk1-cyclin B1; 720 ± 24 µM on Cdk2-cyclin A. The IC50 is more than 1 mM on Cdk9-cyclin T1; 25 µM in test [5]; 35 µM in [6]; 31 µM in the test on A549 (NSCLC; p53+, pRb+); 29 µM in test [7]; 22 µM in [8]. Moreover, the IC50 at Cdk4-cyclin D1 came to 44 ± 3 µM; in test [9] it was 30 µM. In the test on pBluescript plasmid DNA, the “EtBr displacement from DNA” value is “No EtBr displacement up to 100 μM”.
On to `NC(=O)NO` [Hydroxyurea, hydroxyurea, reference compound], for which the “cells in G0/G1” value in the test on NCI-H358 cells amounted to 77%.
With `COC(=O)Nc1nc2ccc(C(=O)c3cccs3)cc2[nH]1` [Nocodazole, nocodazole, reference compound], the “Vmax of tubulin polymerization” value with tubulin stood at 4.5 mOD/min.
For the compound `Cc1c2oc3c(C)ccc(C(=O)N[C@@H]4C(=O)N[C@H](C(C)C)C(=O)N5CCC[C@H]5C(=O)N(C)CC(=O)N(C)[C@@H](C(C)C)C(=O)O[C@@H]4C)c3nc-2c(C(=O)N[C@@H]2C(=O)N[C@H](C(C)C)C(=O)N3CCC[C@H]3C(=O)N(C)CC(=O)N(C)[C@@H](C(C)C)C(=O)O[C@@H]2C)c(N)c1=O` [actinomycin D, reference compound] (I: T[dV]P[Sar][NMeV] / II: T[dV]P[Sar][NMeV]; ester I:1-I:C, II:1-II:C; linker I:N-II:N via Actinocin(9to1)), the “EtBr displacement from DNA” value with pBluescript plasmid DNA is listed as “readily dislodges the bound EtBr”.
On to `CC(=O)O[C@H]1C(=O)[C@@]2(C)[C@H]([C@H](OC(=O)c3ccccc3)[C@]3(O)C[C@H](OC(=O)[C@H](O)[C@@H](NC(=O)c4ccccc4)c4ccccc4)C(C)=C1C3(C)C)[C@]1(OC(C)=O)CO[C@@H]1C[C@@H]2O` [paclitaxel, reference compound], for which the “Vmax of tubulin polymerization” value in the test with tubulin was found to be 61 mOD/min.
